Test system: 317291-083-R-J1-PDC complex spheroid growth
Experiment: Anticancer human tumor 317291-083-R-J1-PDC patient-derived soft tissue sarcoma cell line growth inhibition [Asc]
Details: for IC50: curve of first compound; for viability, T/C: stronger effect = lower value
Outline: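 Spheroid model: tumor line + HUVEC + hMSC. Single agents and combinations; top conc. at/near clinical Cmax (10 microM if undetermined), half-log dilutions. DMSO stocks at 800-fold test concentration.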

[1] = second compound 0.00949 µM, first compound 0.0316 µM
[2] = second compound 0.00949 µM, first compound 0.1 µM
[3] = second compound 0.00949 µM, first compound 0.316 µM
[4] = second compound 0.00949 µM, first compound 1 µM
[5] = second compound 0.03 µM, first compound 0.0316 µM
[6] = second compound 0.03 µM, first compound 0.1 µM
[7] = second compound 0.03 µM, first compound 0.316 µM
[8] = second compound 0.03 µM, first compound 1 µM
[9] = second compound 0.0949 µM, first compound 0.0316 µM
[10] = second compound 0.0949 µM, first compound 0.1 µM
[11] = second compound 0.0949 µM, first compound 0.316 µM
[12] = second compound 0.0949 µM, first compound 1 µM
[13] = second compound 0.3 µM, first compound 0.0316 µM
[14] = second compound 0.3 µM, first compound 0.1 µM
[15] = second compound 0.3 µM, first compound 0.316 µM
[16] = second compound 0.3 µM, first compound 1 µM
[17] = second compound 0.949 µM, first compound 0.0316 µM
[18] = second compound 0.949 µM, first compound 0.1 µM
[19] = second compound 0.949 µM, first compound 0.316 µM
[20] = second compound 0.949 µM, first compound 1 µM
[21] = second compound 3 µM, first compound 0.0316 µM
[22] = second compound 3 µM, first compound 0.1 µM
[23] = second compound 3 µM, first compound 0.316 µM
[24] = second compound 3 µM, first compound 1 µM
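Also: compound exposure lasted seven days after spheroids formed for three days.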
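For viability, T/C in this document: 100% = DMSO vehicle control wells.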

## C#Cc1c(F)ccc2cc(O)cc(-c3ncc4c(N5CC6CCC(C5)N6)nc(OCC56CCCN5CC(F)C6)nc4c3F)c12 (centres undefined) + CCN1C(C(=O)NC23CCC(C(=O)O)(CC2)CC3)C(c2cccc(Cl)c2F)C2(C(=O)Nc3cc(Cl)ccc32)C12CCCCC2
Second compound 0.00949 µM
  IC50: > 10000 nM
Second compound 0.03 µM
  IC50: > 10000 nM
Second compound 0.0949 µM
  IC50: > 10000 nM
Second compound 0.3 µM
  IC50: > 10000 nM
Second compound 0.949 µM
  IC50: > 10000 nM
Second compound 3 µM
  IC50: > 10000 nM
[1]
  viability, T/C: 129%
[2]
  viability, T/C: 78.8%
[3]
  viability, T/C: 125%
[4]
  viability, T/C: 153%
Second compound 0.00949 µM, first compound 3.16 µM
  viability, T/C: 113%
Second compound 0.00949 µM, first compound 10 µM
  viability, T/C: 66.1%
[5]
  viability, T/C: 106%
[6]
  viability, T/C: 98.3%
[7]
  viability, T/C: 106%
[8]
  viability, T/C: 112%
Second compound 0.03 µM, first compound 3.16 µM
  viability, T/C: 78.2%
Second compound 0.03 µM, first compound 10 µM
  viability, T/C: 80.2%
[9]
  viability, T/C: 108%
[10]
  viability, T/C: 101%
[11]
  viability, T/C: 104%
[12]
  viability, T/C: 99.6%
Second compound 0.0949 µM, first compound 3.16 µM
  viability, T/C: 118%
Second compound 0.0949 µM, first compound 10 µM
  viability, T/C: 79.4%
[13]
  viability, T/C: 101%
[14]
  viability, T/C: 97.6%
[15]
  viability, T/C: 120%
[16]
  viability, T/C: 126%
Second compound 0.3 µM, first compound 3.16 µM
  viability, T/C: 101%
Second compound 0.3 µM, first compound 10 µM
  viability, T/C: 69.9%
[17]
  viability, T/C: 104%
[18]
  viability, T/C: 108%
[19]
  viability, T/C: 90.2%
[20]
  viability, T/C: 98.7%
Second compound 0.949 µM, first compound 3.16 µM
  viability, T/C: 100%
Second compound 0.949 µM, first compound 10 µM
  viability, T/C: 78.4%
[21]
  viability, T/C: 72.3%
[22]
  viability, T/C: 74.1%
[23]
  viability, T/C: 77.2%
[24]
  viability, T/C: 86.6%
Second compound 3 µM, first compound 3.16 µM
  viability, T/C: 69.9%
Second compound 3 µM, first compound 10 µM
  viability, T/C: 53.6%

## CNC(C)C(=O)NC1CN(S(=O)(=O)c2cccc(S(=O)(=O)N3CCC4CCC(C(=O)NC(c5ccccc5)c5ccccc5)N4C(=O)C(NC(=O)C(C)NC)C3)c2)CCC2CCC(C(=O)NC(c3ccccc3)c3ccccc3)N2C1=O (centres undefined) + CCN1C(C(=O)NC23CCC(C(=O)O)(CC2)CC3)C(c2cccc(Cl)c2F)C2(C(=O)Nc3cc(Cl)ccc32)C12CCCCC2
Second compound 0.00949 µM
  IC50: 253 nM
Second compound 0.03 µM
  IC50: 517 nM
Second compound 0.0949 µM
  IC50: 313 nM
Second compound 0.3 µM
  IC50: 459 nM
Second compound 0.949 µM
  IC50: > 1000 nM
Second compound 3 µM
  IC50: 75.2 nM
Second compound 0.00949 µM, first compound 0.00316 µM
  viability, T/C: 96.9%
Second compound 0.00949 µM, first compound 0.01 µM
  viability, T/C: 86%
[1]
  viability, T/C: 71.7%
[2]
  viability, T/C: 61.3%
[3]
  viability, T/C: 49.5%
[4]
  viability, T/C: 32.1%
Second compound 0.03 µM, first compound 0.00316 µM
  viability, T/C: 81.3%
Second compound 0.03 µM, first compound 0.01 µM
  viability, T/C: 87.8%
[5]
  viability, T/C: 72.5%
[6]
  viability, T/C: 65.2%
[7]
  viability, T/C: 50.9%
[8]
  viability, T/C: 47.7%
Second compound 0.0949 µM, first compound 0.00316 µM
  viability, T/C: 108%
Second compound 0.0949 µM, first compound 0.01 µM
  viability, T/C: 101%
[9]
  viability, T/C: 79.1%
[10]
  viability, T/C: 67.4%
[11]
  viability, T/C: 49.1%
[12]
  viability, T/C: 39.2%
Second compound 0.3 µM, first compound 0.00316 µM
  viability, T/C: 98.7%
Second compound 0.3 µM, first compound 0.01 µM
  viability, T/C: 71.4%
[13]
  viability, T/C: 70.9%
[14]
  viability, T/C: 68.7%
[15]
  viability, T/C: 54.5%
[16]
  viability, T/C: 41.1%
Second compound 0.949 µM, first compound 0.00316 µM
  viability, T/C: 90.1%
Second compound 0.949 µM, first compound 0.01 µM
  viability, T/C: 66.4%
[17]
  viability, T/C: 64.1%
[18]
  viability, T/C: 62.4%
[19]
  viability, T/C: 38.9%
[20]
  viability, T/C: 63.8%
Second compound 3 µM, first compound 0.00316 µM
  viability, T/C: 64.4%
Second compound 3 µM, first compound 0.01 µM
  viability, T/C: 66.1%
[21]
  viability, T/C: 59%
[22]
  viability, T/C: 47.7%
[23]
  viability, T/C: 34.6%
[24]
  viability, T/C: 35.4%

Reference: PubChem BioAssay AID1963427 (Molecular Pharmacology Branch, DTP, NCI, 2024)
